From patent US6958416B2, “Valproyltaurinamide derivatives as anticonvulsant amd CNS active agents” (Yissum Research Development Company of the Hebrew …, priority 2001, dated 2005)
Where two headings read alike, the source gives them in different places.

What was measured:
audiogenic seizures = audiogenic seizures in Frings audiogenic seizure susceptible mice; type: in vivo; details: for potency compared with VPA in audiogenic seizure model: in words
Description: In mice the compounds were tested for their ability to protect against audiogenic seizures in the Frings audiogenic seizure susceptible mice after ip administration. This model is considered as a good screening model in pharmacologic studies for CNS active compounds.

[1] = tested on: subcutaneous pentylenetetrazole induced convulsions (seizure threshold); experiment: subcutaneous pentylenetetrazole test (s.c. Met); type: in vivo; details: rats, table title: oral administration; for ED50: Rattus norvegicus, read-out: sc Met ED50
Source text: (§1) The first model the maximal electroshock seizure test (MES), is used to show efficacy for antiepileptic agents against partial and generalized seizure type epilepsy, the common epilepsy among therapy resistant epileptic patients. The second model, the subcutaneous pentylenetetrazole test (s.c. Met) which measures seizure threshold and is a standard screening procedure to show efficacy for agents against […] seizures. In these studies, convulsions were inhibited or prevented after oral (p.o.) and intraperitoneal (ip) administration of the compounds.

[2] = tested on: maximal electroshock seizure (MES); experiment: maximal electroshock seizure test (MES); type: in vivo; details: rats; for anticonvulsant activity in the MES test: result in words; for ED50: Rattus norvegicus
Source text: as §1

[3] = Neurotoxicity, Gait and Stance test
Description: Neurotoxicity of the agents was assessed in rats (p.o. and ip administration) in the Gait and Stance test and in mice in the Rotarod Ataxia test, which assess minimal neurotoxicity.

[4] = Pharmacokinetics in mongrel dogs; type: in vivo
Description: The pharmacokinetics of Compound A were evaluated in mongrel dogs.

6 Hz psychomotor seizure = 6 Hz psychomotor seizure model; type: in vivo; details: Mus musculus; mice ip, stimulation intensity 22 mA
[5] = po, p.o. administration, read-out: MES ED50 (mg/kg po)

CCCC(CCC)C(=O)NCCS(=O)(=O)NC(C)C [C, N-(2-Propylpentanoyl)taurine-N′-isopropylamide]
Audiogenic seizures ED50 (audiogenic seizures; ip administration): 126 mg/kg
potency compared with VPA in audiogenic seizure model (audiogenic seizures; ip): more potent than VPA
sc Met ED50 [1]: >250 mg/kg
MES ED50 (mg/kg ip) ([2]; ip administration): 52 mg/kg
MES ED50 (mg/kg po) ([2]; p.o. administration): 63 mg/kg
anticonvulsant activity in the MES test [2]: showed anticonvulsant activity
Neurotoxicity TD50 (mg/kg ip) ([3]; rats, ip administration): 627 mg/kg
TD50 compared with VPA ([3]; rats, in words): significantly higher than TD50 for VPA

CCCC(CCC)C(=O)NCCS(=O)(=O)N(C)C [B, N-(2-Propylpentanoyl)taurine-N′,N′-dimethylamide]
Audiogenic seizures ED50 (audiogenic seizures; ip administration): 134 mg/kg
potency compared with VPA in audiogenic seizure model (audiogenic seizures; ip): more potent than VPA
sc Met ED50 [1]: >200 mg/kg
MES ED50 (mg/kg ip) ([2]; ip administration): 50 mg/kg
MES ED50 (mg/kg po) ([2]; p.o. administration): >160 mg/kg
anticonvulsant activity in the MES test [2]: showed anticonvulsant activity
Neurotoxicity TD50 (mg/kg ip) ([3]; rats, ip administration): 175 mg/kg
TD50 compared with VPA ([3]; rats, in words): significantly higher than TD50 for VPA

CCCC(CCC)C(=O)NCCS(=O)(=O)N(CC)CC [N-(2-n-propylpentanoyl)taurine-N′,N′-diethylamide]
anticonvulsant activity in the MES test [2]: showed anticonvulsant activity

CCCC(CCC)C(=O)NCCS(=O)(=O)NCC [N-(2-n-propylpentanoyl)taurine-N′-ethylamide]
anticonvulsant activity in the MES test [2]: showed anticonvulsant activity

CCCC(CCC)C(=O)NCCS(=O)(=O)NC [N-(2-n-propylpentanoyl)taurine-N′-methylamide]
anticonvulsant activity in the MES test [2]: showed anticonvulsant activity

CCCC(CCC)C(=O)NCCS(N)(=O)=O [Compound A, N-(2-Propylpentanoyl)taurinamide]
half-life ([4]; dog, in vivo): 5.6 h
Vd ([4]; dog, in vivo, read-out: Volume of distribution at steady state (Vss)): 0.84 L/kg
clearance ([4]; dog, in vivo, read-out: total body clearance (CL) (converted)): 1.83 mL/min/kg
liver extraction ratio ([4]; in words): low
ED50 (audiogenic seizures; Mus musculus, ip, ip administration): 50 to 140 mg/kg
Audiogenic seizures ED50 (audiogenic seizures; ip administration): 51 mg/kg
audiogenic seizure ED50 compared with VPA (audiogenic seizures; ip, relative to VPA): 3 times lower
ED50 [1]: > 250 mg/kg
ED50 [2, 5]: 65 mg/kg
ED50 ([2]; ip administration, read-out: MES ED50 (mg/kg ip)): 50 mg/kg
anticonvulsant activity in the MES test [2]: showed anticonvulsant activity
TD50 compared with VPA ([3]; rat, in vivo): significantly higher than TD50 for VPA
Neurotoxicity TD50 (mg/kg ip) ([3]; rat, in vivo, ip): >300 mg/kg
TD50 ([3]; rat, in vivo, ip): > 300 mg/kg
Neurotoxicity TD50 (mg/kg po) ([3]; rat, in vivo, po): >500 mg/kg
TD50 ([3]; rat, in vivo, po): > 500 mg/kg
ED50 (6 Hz psychomotor seizure): 188 mg/kg

CCCC(CCC)C(=O)O [VPA, valproic acid, reference compound]
ED50 [1]: 180 mg/kg
ED50 [2, 5]: 490 mg/kg
TD50 ([3]; rat, in vivo, po): 200 mg/kg
